Key:
EGFR = target: T1, EGFR (Homo sapiens, UniProt P00533); assay: EGFR Kinase Assay; format: biochemical; conditions: for IC50: GST-EGFR, ATP 5 μM
T1 construct: The intracellular portion of EGFR started at nucleotide 2189 (corresponding to amino acid 667) and ended at the termination codon; made in house; host or cells: Sf9 insect cells (baculovirus)
Method in brief: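 Potency came from triplicate 16-point half-log titrations starting at 200 uM, with IC50 fitted from % inhibition against log concentration, or % inhibition at 2 μM otherwise. Reaction: Sf9-made GST–EGFR cytoplasmic region (aa 667 onward), biotin-polyGluTyr, 5 μM ATP with 33P tracer, pH 8.0 Tris/Mg/vanadate/DTT, 30 °C for 1 h; captured on streptavidin Flashplates and counted.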

Lyn kinase (human) = target: T2, Lyn kinase (human) (Homo sapiens, UniProt P07948); assay: Lyn Kinase Assay; format: biochemical; conditions: test concentration of 2 μM
T2 construct: purchased Upstate Biotechnology, Lake Placid, N.Y
T2 sequence (P07948 whole entry): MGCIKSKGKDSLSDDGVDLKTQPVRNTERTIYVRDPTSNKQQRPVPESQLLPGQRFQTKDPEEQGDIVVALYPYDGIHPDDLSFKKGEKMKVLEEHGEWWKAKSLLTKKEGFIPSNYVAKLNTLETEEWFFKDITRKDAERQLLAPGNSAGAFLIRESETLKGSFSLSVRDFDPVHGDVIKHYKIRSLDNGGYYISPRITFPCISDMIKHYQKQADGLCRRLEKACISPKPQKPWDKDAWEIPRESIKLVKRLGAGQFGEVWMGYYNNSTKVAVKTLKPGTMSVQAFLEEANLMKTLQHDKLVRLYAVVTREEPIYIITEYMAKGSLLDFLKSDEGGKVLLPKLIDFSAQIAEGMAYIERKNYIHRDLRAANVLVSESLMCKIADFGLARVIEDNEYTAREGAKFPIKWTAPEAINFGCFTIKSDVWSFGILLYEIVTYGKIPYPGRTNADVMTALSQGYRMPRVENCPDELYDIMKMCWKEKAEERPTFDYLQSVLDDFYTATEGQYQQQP
Method in brief: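 Radiometric filter-binding assay with recombinant human Lyn, poly(Glu,Tyr) substrate (0.1 mg/mL final), 5 μM ATP plus γ-33P-ATP in MOPS pH 7.5/Mg acetate buffer; 40 min at 30 °C, stopped with phosphoric acid, counted by scintillation. Reported as percent inhibition at 2 μM, with IC50 (μM) where determined.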

HCT-116 colon carcinoma = assay: Cell Proliferation Inhibition Assay, HCT-116 (14C-thymidine); format: cell-based; conditions: Homo sapiens, HCT-116 cell proliferation
Text: Cell Proliferation Inhibition Assay
The ability of a test compound to inhibit unregulated cell proliferation may be determined by measuring incorporation of ^14C-labelled thymidine into newly synthesized DNA within cell lines derived from carcinomas originating from several tissues. Accordingly, the effect of a test compound on proliferation of cells with a variety of phenotypes may be determined.
Carcinoma cell lines used include the HeLa cervical adenocarcinoma from the American Type Culture Collection (ATCC Cat. #CCL2), A375 malignant melanoma (ATCC Cat. #CRL-1619), HCT-116 colon carcinoma (ATCC Cat. #CCL-247), SKBR3 breast carcinoma (ATCC Cat. #HTB-30) and BT474 breast carcinoma (ATCC Cat. #HTB-20).
The carcinoma cells were trypsinized and counted. The cells (3000-8000 count) were added to each well of a 96-well CytoStar tissue culture treated scintillating microplate (Amersham #RPNQ0160) in complete medium (100 μL) and the plate was then incubated in complete medium for 24 hrs at 37° C. in an inert atmosphere containing 5% CO2.
Test compound (1 μL) in 100% DMSO was added to the plate test-wells with DMSO only added to control-wells. The plate was incubated in complete medium for a second 24 hr period at 37° C. in an atmosphere containing 5% CO2.
An aliquot of a solution of Methyl ^14C-thymidine (56 mC/mmol) (NEN #NEC568 or AMersham #CFA532) and complete medium (20 uL to provide 0.2 μCl/well) was then added to each well and the plate was incubated for a third 24 hr period at 37° C. in an atmosphere containing 5% CO2.
The plate contents were then discarded, the plate washed twice with PBS (200 μL) and then PBS (200 μL) was added to each well. The plate was sealed and the degree of methyl ^14C-thymidine incorporation was quantified on a Packard Top Count.
Cell proliferation of the Hela cell line was measured using the ATP-Lite method as described in the ATP Lite Kit (Perkin-Elmer Kit Number 6106941) or the C^14 method as described above. Cell proliferation of the other cell lines was measured using the C^14 method.

T1 sequence (P00533 669-1210 limits assumed): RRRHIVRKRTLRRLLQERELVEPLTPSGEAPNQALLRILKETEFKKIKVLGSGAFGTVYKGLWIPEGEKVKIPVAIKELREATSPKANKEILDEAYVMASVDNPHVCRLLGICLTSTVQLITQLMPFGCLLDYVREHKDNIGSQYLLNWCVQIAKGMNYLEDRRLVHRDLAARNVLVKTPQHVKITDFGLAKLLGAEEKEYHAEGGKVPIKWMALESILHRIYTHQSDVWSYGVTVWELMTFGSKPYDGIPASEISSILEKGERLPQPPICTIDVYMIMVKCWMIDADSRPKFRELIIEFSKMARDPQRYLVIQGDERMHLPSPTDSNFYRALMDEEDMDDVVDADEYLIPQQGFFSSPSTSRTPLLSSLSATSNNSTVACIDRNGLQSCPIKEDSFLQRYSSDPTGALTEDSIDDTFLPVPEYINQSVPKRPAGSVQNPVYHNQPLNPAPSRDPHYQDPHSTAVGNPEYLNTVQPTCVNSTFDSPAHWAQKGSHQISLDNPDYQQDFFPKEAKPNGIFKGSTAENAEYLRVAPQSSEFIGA

| Structure (SMILES) | IC50 (EGFR) [µM] | inhibition at 2 µM (Lyn kinase (human)) [%] | IC50 (HCT-116 colon carcinoma) [µM] | inhibition at 2 µM (EGFR; test concentration of 2 μM, compounds without an IC50, read-out: EGFR inhibition in percent) [%] |
| --- | --- | --- | --- | --- |
| O=C(O)c1sc2ncnc3c2c1NC(=O)N3c1ccc(OCc2ccccn2)c(Cl)c1 [Cpd 38, 5-[3-chloro-4-(pyridin-2-ylmethoxy)-phenyl]-4-oxo-4,5-dihydro-3H-1-thia-3,5,6,8-tetraaza-acenaphthylene-2-carboxylic acid] | 0.92 | -16 | 100 |  |
| COc1ccc(NC(=O)c2sc3ncnc4c3c2NC(=O)N4c2ccc(OCc3ccccn3)c(Cl)c2)cc1OC [Cpd 48, 5-[3-chloro-4-(pyridin-2-ylmethoxy)-phenyl]-4-oxo-4,5-dihydro-3H-1-thia-3,5,6,8-tetraaza-acenaphthylene-2-carboxylic acid (3,4-dimethoxy-phenyl)-amide] | 0.061 | 14 | 30.4 |  |
| O=C(Nc1ccc(CN2CCOCC2)cc1)c1sc2ncnc3c2c1NC(=O)N3c1ccc(OCc2ccccn2)c(Cl)c1 [Cpd 52, 5-[3-chloro-4-(pyridin-2-ylmethoxy)-phenyl]-4-oxo-4,5-dihydro-3H-1-thia-3,5,6,8-tetraaza-acenaphthylene-2-carboxylic acid (4-morpholin-4-ylmethyl-phenyl)-amide] | 0.051 | 16.2 | 100 |  |
| CCOC(=O)c1sc2ncnc3c2c1NC(=O)N3c1cc(Br)ccc1C [Cpd 103, 5-(5-bromo-2-methyl-phenyl)-4-oxo-4,5-dihydro-3H-1-thia-3,5,6,8-tetraaza-acenaphthylene-2-carboxylic acid ethyl ester] |  |  | 100 | 21 |

More lines, now with the values ahead:

| IC50 (EGFR) [µM] | inhibition at 2 µM (Lyn kinase (human)) [%] | IC50 (HCT-116 colon carcinoma) [µM] | inhibition at 2 µM (EGFR; test concentration of 2 μM, compounds without an IC50, read-out: EGFR inhibition in percent) [%] | Structure (SMILES) |
| --- | --- | --- | --- | --- |
| 0.164 |  | 100 |  | O=C(O)c1sc2ncnc3c2c1NC(=O)N3c1ccc2c(ccn2Cc2cccc(F)c2)c1 [Cpd 77, 5-[1-(3-fluoro-benzyl)-1H-indol-5-yl]-4-oxo-4,5-dihydro-3H-1-thia-3,5,6,8-tetraaza-acenaphthylene-2-carboxylic acid] |
| 2.22 |  | 100 |  | CCOC(=O)c1sc2ncnc3c2c1NC(=O)N3c1ccc2c(cnn2Cc2cccc(F)c2)c1 [Cpd 78, 5-[1-(3-fluoro-benzyl)-1H-indazol-5-yl]-4-oxo-4,5-dihydro-3H-1-thia-3,5,6,8-tetraaza-acenaphthylene-2-carboxylic acid ethyl ester] |
| 0.302 |  | 100 |  | O=C(O)c1sc2ncnc3c2c1NC(=O)N3c1ccc2c(cnn2Cc2cccc(F)c2)c1 [Cpd 79, 5-[1-(3-fluoro-benzyl)-1H-indazol-5-yl]-4-oxo-4,5-dihydro-3H-1-thia-3,5,6,8-tetraaza-acenaphthylene-2-carboxylic acid] |
| 0.036 |  | 14 |  | O=C(Nc1ccc(CN2CCCCC2)cc1)c1sc2ncnc3c2c1NC(=O)N3c1ccc2c(cnn2Cc2cccc(F)c2)c1 [Cpd 80, 5-[1-(3-fluoro-benzyl)-1H-indazol-5-yl]-4-oxo-4,5-dihydro-3H-1-thia-3,5,6,8-tetraaza-acenaphthylene-2-carboxylic acid (4-piperidin-1-ylmethyl-phenyl)-amide] |
| 0.113 |  | 3.69 |  | O=C(Nc1ccc(CN2CCCCC2)cc1)c1sc2ncnc3c2c1NC(=O)N3c1ccc2c(ccn2Cc2cccc(F)c2)c1 [Cpd 87, 5-[1-(3-fluoro-benzyl)-1H-indol-5-yl]-4-oxo-4,5-dihydro-3H-1-thia-3,5,6,8-tetraaza-acenaphthylene-2-carboxylic acid (4-piperidin-1-ylmethyl-phenyl)-amide] |
| 0.045 |  | 4.36 |  | CN1CCC(NC(=O)c2sc3ncnc4c3c2NC(=O)N4c2ccc3c(ccn3Cc3cccc(F)c3)c2)CC1 [Cpd 92, 5-[1-(3-fluoro-benzyl)-1H-indol-5-yl]-4-oxo-4,5-dihydro-3H-1-thia-3,5,6,8-tetraaza-acenaphthylene-2-carboxylic acid (1-methyl-piperidin-4-yl)-amide] |
